Source: ChEMBL document CHEMBL1121497, “Studies on cardiovascular agents. 6. Synthesis and coronary vasodilating and antihypertensive activities of 1,2,4-triazolo[1,5-a]pyrimidines fused to heterocyclic systems” (1980)

How the values were obtained:
Format in all cases: functional
Rattus norvegicus = test: Hypotensive index (HI) measured as the area under the time-hypotensive response curve for 6-h period at 30 mg/kg, po
Cavia porcellus [1] = species: Cavia porcellus; test: Integrated vasodilating potency (IVP) (the product of compound-induced maximum percent decrease in the perfusion pressure and the duration of the effect in minutes at 100 ug (ia))
Cavia porcellus [2] = species: Cavia porcellus; test: Integrated vasodilating potency (the product of compound-induced maximum percent decrease in the perfusion pressure and the duration of the effect in minutes at 100 ug (ia); Coronary vasoconstricting action)

Structure (SMILES) | HI (Rattus norvegicus) | IVP (Cavia porcellus [1]) | IVP (Cavia porcellus [2])
Cc1nc2ncnn2c2c1CCN2CC(C)C | 60 | 107 | 
CCC1Cc2c(C)nc3ncnn3c2N1Cc1ccccc1F (centres undefined) | 0 | 67 | 
Cc1nc2ncnn2c2c1CCN2CCOCCO | 10 | 22 | 
Cc1nc2nc(C)c3c(n2n1)N(Cc1ccccc1Cl)CC3 | 18 | 15 | 
Cc1nc2nc(-c3ccccc3)nn2c2c1CCN2Cc1ccccc1F | 8 |  | Coronary vasoconstricting action
Cc1nc2ncnn2c2c1CCN2c1ccc(S(N)(=O)=O)cc1 | 0 | 14 | 
Cc1nc2ncnn2c2c1CCN2CCCN(C)C | 10 | 0 | 
Cc1nc2ncnn2c2c1CCN2CCN1CCCC1 | 0 | 2 | 
Cc1nc2ncnn2c2c1CCCN2Cc1ccccc1F | 0 |  | Coronary vasoconstricting action
Cc1nc2ncnn2c2c1CCN2C1CCCCCCC1 | 15 |  | Coronary vasoconstricting action
Cc1nc2nc(-c3ccc(Cl)cc3)nn2c2c1CCN2C(C)C | 0 |  | Coronary vasoconstricting action
CCN1CCc2c(C)nc3ncnn3c21 | 10 | 12 | 
COc1ccc(CN2c3c(c(C)nc4ncnn34)CC2C)cc1 (centres undefined) | 11 | 82 | 
Cc1nc2ncnn2c2c1CCN2CCN1CCCCC1 | 10 | 2 | 
Cc1nc2ncnn2c2c1CCN2 | 55 | 6 | 
COc1ccc(CN2CCc3c(C)nc4ncnn4c32)cc1OC | 55 | 174 | 
COc1ccc(-c2nc3nc(C)c4c(n3n2)N(C)CC4)cc1 | 0 | 0 | 
Cc1nc2ncnn2c2c1CCN2c1ccccc1 | 15 | 72 | 
CCCCCCCCCCN1CCc2c(C)nc3ncnn3c21 | 7 |  | 
Cc1nc2ncnn2c2c1CC(C)N2Cc1ccccc1F (centres undefined) | 5 | 64 | 
Cc1nc2ncnn2c2c1CCN2CC(O)CO (centres undefined) | 15 |  | Coronary vasoconstricting action
COc1cc(C(=O)OCCN2CCc3c(C)nc4ncnn4c32)cc(OC)c1OC | 0 | 21 | 
Cc1nc2ncnn2c2c1CC(C)N2Cc1ccccc1Cl (centres undefined) | 8 | 80 | 
CCCCCCCCCCCCN1CCc2c(C)nc3ncnn3c21 | 10 |  | 
Cc1nc2ncnn2c2c1CCN2CCO | 0 | 12 | 
Cc1nc2ncnn2c2c1ccn2CC(C)C | 15 | 38 | 

Structure (SMILES) | HI (Rattus norvegicus) | IVP (Cavia porcellus [1]) | IVP (Cavia porcellus [2])
Cc1nc2ncnn2c2c1NCCN2C | 5 | 0 | 
Cc1nc2ncnn2c2c1CCN2CCS | 10 | 285 | 
C=CCN1CCc2c(C)nc3ncnn3c21 | 70 | 56 | 
CCCCN1c2c(c(C)nc3ncnn23)CC1C (centres undefined) | 45 | 50 | 
c1ccc(CCN2CCc3c(C4CC4)nc4ncnn4c32)cc1 | 12 | 180 | 
COc1ccc(-c2nc3nc(C)c4c(n3n2)N(C(C)(C)C)CC4)cc1 | 13 |  | Coronary vasoconstricting action
Cc1nc2ncnn2c2c1CCN2CCCN1CCCC1 | 75 | 0 | 
CCCCCCN1CCc2c(C)nc3ncnn3c21 | 10 | 14 | 
Cc1nc2ncnn2c2c1CCN2C(C)c1ccccc1 (centres undefined) | 5 | 137 | 
COc1ccc(-c2nc3nc(C)c4c(n3n2)N(C(C)C)CC4)cc1 | 0 |  | Coronary vasoconstricting action
Cc1nc2ncnn2c2c1CCN2CCCOC(=O)c1cccnc1 | 30 | 24 | 
Cc1nc2ncnn2c2c1ccn2C(C)(C)C | 160 | 246 | 
COc1ccc(CCN2CCc3c(C)nc4ncnn4c32)cc1OC | 15 | 11 | 
CC(C)(C)N1CCc2c(C3CC3)nc3ncnn3c21 | 20 | 125 | 
Cc1nc2ncnn2c2c1CCCO2 |  | 0 | 
Cc1nc2ncnn2c2c1CCN2Cc1ccccc1Cl | 30 | 86 | 
Cc1nc2ncnn2c2c1CCN2CCN1CCOCC1 | 5 | 16 | 
Cc1nc2ncnn2c2c1CCN2C1CCCCC1 | 12 | 65 | 
CCCCCN1CCc2c(C)nc3ncnn3c21 | 6 | 15 | 
Cc1nc2nc(-c3ccccc3)nn2c2c1CCN2C(C)C | 0 |  | Coronary vasoconstricting action
Cc1nc2ncnn2c2c1N(C)CCN2C | 25 | 45 | 
N=C(N)NCCN1CCCCCCC1.N=C(N)NCCN1CCCCCCC1.O=S(=O)(O)O [GUANETHIDINE SULFATE] | 195 |  | 
Clc1ccccc1CN1CCc2c(C3CC3)nc3ncnn3c21 |  | 5 | 
Cc1nc2ncnn2c2c1CCN2CCOC(=O)c1cccnc1 | 30 | 7 | 
Cc1nc2ncnn2c2c1CCS2 | 10 | 0 | 
CCCN1CCc2c(C)nc3ncnn3c21 | 15 | 193 | 

Structure (SMILES) | HI (Rattus norvegicus) | IVP (Cavia porcellus [1]) | IVP (Cavia porcellus [2])
Cc1nc2ncnn2c2c1CCN2CCN1CCN(C)CC1 | 10 | 20 | 
Cc1nc2nc(C)c3c(n2n1)N(CCCN1CCCC1)CC3 | 10 | 0 | 
Cc1nc2ncnn2c2[nH]ccc12 | 60 | 45 | 
CCC(C)N1CCc2c(C)nc3ncnn3c21 (centres undefined) | 100 | 5 | 
Cc1nc2ncnn2c2c1CCN2CC(C)(C)C | 40 | 760 | 
CCC1Cc2c(C)nc3ncnn3c2N1C(C)C (centres undefined) | 20 | 0 | 
Cc1nc2ncnn2c2c1CCN2C1CCCCCC1 | 45 | 440 | 
CC(C)N1CCc2c(C3CC3)nc3ncnn3c21 | 5 | 45 | 
CCN(CC)CCN1CCc2c(C)nc3ncnn3c21 | 0 | 1 | 
Cc1nc2ncnn2c2c1CCN2C | 10 | 50 | 
Cc1nc2nc(-c3ccccc3)nn2c2c1CCN2CCCN1CCCC1 | 44 | 105 | 
COc1cc(C(=O)OCCCN2CCc3c(C)nc4ncnn4c32)cc(OC)c1OC | 10 | 26 | 
CCCCN1c2c(c(C)nc3ncnn23)CC1CC (centres undefined) | 10 | 120 | 
Cc1ccc(CN2CCc3c(C)nc4ncnn4c32)cc1 | 15 | 119 | 
COc1ccc(-c2nc3nc(C)c4c(n3n2)N(CCCN2CCCC2)CC4)cc1 | 0 | 0 | 
Cc1nc2nc(C)c3c(n2n1)N(C(C)(C)C)CC3 | 35 | 18 | 
Cc1nc2ncnn2c2c1CCN2C(C)C | 0 | 24 | 
Cc1nc2ncnn2c2c1CCN2CCCN1CCOCC1 | 40 | 3 | 
Cc1nc2ncnn2c2c1CCN2CCC(C)C | 5 | 118 | 
CCCN1CCN(CCCN2CCc3c(C)nc4ncnn4c32)CC1 | 0 | 3 | 
Cc1nc2ncnn2c2c1CCN2CCc1ccccc1 | 5 | 100 | 
Cc1nc2ncnn2c2c1CCN2C(C)(C)CC(C)(C)C |  | 32 | 
COc1ccc(Cn2ccc3c(C)nc4ncnn4c32)cc1 | 0 | 55 | 
Cc1nc2ncnn2c2c1C(C)CN2C(C)(C)C (centres undefined) | 20 | 333 | 
Cc1nc2ncnn2c2c1CCN2Cc1ccccc1 | 170 | 46 | 
Cc1nc2ncnn2c2c1CC(C)N2C(C)(C)C (centres undefined) |  | 47 | 

Structure (SMILES) | HI (Rattus norvegicus) | IVP (Cavia porcellus [1]) | IVP (Cavia porcellus [2])
Cc1nc2ncnn2c2c1CCN2C(C)C(O)c1ccccc1 (centres undefined) | 0 | 8 | 
Cc1nc2ncnn2c2c1CCN2Cc1ccc(Cl)cc1 | 145 | 250 | 
CC(C)(C)CN1CCc2c(C3CC3)nc3ncnn3c21 | 20 | 50 | 
CCCCN1CCc2c(C)nc3ncnn3c21 | 145 | 30 | 
COc1cc(CN2CCc3c(C)nc4ncnn4c32)cc(OC)c1OC | 15 | 109 | 
Cc1nc2ncnn2c2c1CCN2CCCN(CCO)CCO | 45 | 0 | 
Cc1nc2ncnn2c2c1CCN2C(C)CC(C)C (centres undefined) | 5 | 86 | 
COc1ccc(CN2CCc3c(C)nc4ncnn4c32)cc1 | 13 | 55 | 
CCC1Cc2c(C)nc3ncnn3c2N1C(C)(C)C (centres undefined) | 12 | 227 | 
CCCCN(CCCC)CCCN1CCc2c(C)nc3ncnn3c21 | 40 | 0 | 
COc1cc(-c2nc3nc(C)c4c(n3n2)N(C(C)(C)C)CC4)cc(OC)c1OC | 50 | 222 | 
Cc1nc2ncnn2c2c1CCN2c1c(Cl)cccc1Cl | 0 | 7 | 
Cc1nc2ncnn2c2c1CCN2C(C)(C)CO | 75 | 38 | 
Cc1nc2ncnn2c2c1ccn2Cc1ccccc1Cl | 12 | 22 | 
Cc1nc2ncnn2c2c1CC(C)N2C(C)C (centres undefined) | 0 | 10 | 
Cc1nc2ncnn2c2c1CCN2Cc1ccccc1F | 5 | 351 | 
Cc1nc2ncnn2c2c1CCN2C(C)COc1ccccc1 (centres undefined) | 65 | 63 | 
CNC1(C)C2CCC(C2)C1(C)C (centres undefined) [MECAMYLAMINE] | 110 |  | 
Cc1nc2ncnn2c2c1CCN2CCCN1CCCCC1 | 45 | 5 | 
Cc1nc2ncnn2c2c1CCN2CCCO | 105 | 12 | 
Cc1nc2ncnn2c2c1CCN2CCC(=O)c1ccccc1 | 17 | 32 | 
Cc1cn(C(C)(C)C)c2c1c(C)nc1ncnn12 | 20 | 330 | 
Cc1nc2ncnn2c2c1CC[N+]2(C)C(C)(C)C.[I-] (centres undefined) | 0 | 9 | 
